Assay results published in PubChem BioAssay (NCI).
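Where inhibition never reached the appropriate level, the endpoint shown equals the highest concentration tested. Otherwise, values were interpolated linearly from a five-concentration, 48-hour dose response in 96-well plates. GI50 marks 50% less growth. TGI denotes the concentration required for complete inhibition of growth.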

Key:
Test in all cases: NCI-60 cell line screen, 48 h
DLD-1 colon = tested on: DLD-1 colon
DMS 273 small cell lung = tested on: DMS 273 small cell lung
KM20L2 colon = tested on: KM20L2 colon
LXFL 529 NSCLC = tested on: LXFL 529 NSCLC
SNB-78 CNS = tested on: SNB-78 CNS
SR leukemia = tested on: SR leukemia
UO-31 renal = tested on: UO-31 renal
DMS 114 small cell lung = tested on: DMS 114 small cell lung
M19-MEL melanoma = tested on: M19-MEL melanoma
PC-3 prostate = tested on: PC-3 prostate
T-47D breast = tested on: T-47D breast
MDA-MB-231 breast = tested on: MDA-MB-231 breast

SMILES | TGI (DLD-1 colon) | TGI (DMS 273 small cell lung) | TGI (KM20L2 colon) | TGI (LXFL 529 NSCLC) | TGI (SNB-78 CNS) | TGI (SR leukemia) | TGI (UO-31 renal) | TGI (DMS 114 small cell lung) | TGI (M19-MEL melanoma) | TGI (PC-3 prostate) | TGI (T-47D breast) | TGI (MDA-MB-231 breast) | GI50 (KM20L2 colon) | GI50 (LXFL 529 NSCLC) | GI50 (M19-MEL melanoma) | GI50 (UO-31 renal)
O=C1OC(O)C(Oc2c(Cl)cccc2Cl)=C1Cl (stereo unspecified) | 32.1 µM | 30.1 µM | 32.9 µM | 33.6 µM | 94.6 µM | 54.1 µM | 28.2 µM |  |  |  |  |  |  |  |  | 
COC(=O)C1[C@H](c2cc(OC)c(OC)c(OC)c2)OC(=O)C1(C(=O)OC)C(=O)c1ccc2c(c1)OCO2 (stereo partly specified) | > 100 µM | > 100 µM | > 100 µM | > 100 µM | > 100 µM |  | > 100 µM | > 100 µM | > 100 µM |  |  |  |  |  |  | 
CCOc1cccc2ccc[n+](CC)c12 | > 100 µM | > 100 µM | > 100 µM | > 100 µM |  |  | > 100 µM | > 100 µM | > 100 µM |  |  |  |  |  |  | 
CC(C)(C)C1CCC2c3c([nH]c4ccccc34)C3C(=O)N(c4ccccc4)C(=O)C3C2C1 (stereo unspecified) | > 100 µM | 15 µM |  | 32.3 µM | 19 µM |  | 8.48 µM | 20.7 µM | 23.7 µM |  |  |  |  |  |  | 
Cn1c(=O)c2nc(-c3ccc(Cl)cc3)oc2n(C)c1=O | > 100 µM | > 100 µM | > 100 µM | > 100 µM | > 100 µM | > 100 µM | > 100 µM | > 100 µM | > 100 µM |  |  |  |  |  |  | 
O=c1c2cccc3cccc(c4n1CCN=4)c32 | > 100 µM | > 100 µM | > 100 µM | > 100 µM | > 100 µM | 81.5 µM | > 100 µM | > 100 µM | > 100 µM |  |  |  |  |  |  | 
CCOC(=N)/C(=C1\OC(N)=C(c2ccc(Cl)cc2)C1=O)c1ccc(Cl)cc1 | 28.8 µM | 34.4 µM | 37.1 µM | 27.8 µM | > 100 µM | 56.5 µM | 31.3 µM | 40.6 µM | 34.7 µM |  |  |  |  |  |  | 
C[N+](C)(C)CC(=O)N/N=C(\C(=O)NC1=C(Cl)C(=O)c2ccccc2C1=O)C(C#N)c1csc(-c2ccc([N+](=O)[O-])cc2)n1 (stereo unspecified) | > 100 µM | > 100 µM | > 100 µM | > 100 µM | > 100 µM | > 100 µM | > 100 µM | > 100 µM | > 100 µM |  |  |  |  |  |  | 
O=S1Nc2c(Cl)cc(Cl)c3c(Cl)cc(Cl)c(c23)N1 | 74.8 µM | > 100 µM | > 100 µM | > 100 µM |  |  | > 100 µM | > 100 µM | > 100 µM |  |  |  |  |  |  | 
CCCN(CCCC(NC(C)=O)C(=O)NCc1ccccc1)C(=O)NCCCl (stereo unspecified) | > 100 µM | > 100 µM | > 100 µM | > 100 µM |  | > 100 µM | > 100 µM | > 100 µM | > 100 µM |  |  |  |  |  |  | 
CSc1n[n+]2c(s1)SCCC2 | > 100 µM | > 100 µM |  | > 100 µM | > 100 µM | > 100 µM | > 100 µM | > 100 µM | > 100 µM |  |  |  |  |  |  | 
CC(=O)OC1CC2C(C)(C)C(=O)C=C[C@]2(C)C2CCC3(C)C(=CC(=O)C3c3ccoc3)[C@]12C (stereo partly specified) | 31 µM |  | 28.2 µM | 74.2 µM | > 100 µM |  | 33 µM | 27.6 µM | 33.5 µM |  |  |  |  |  |  | 
CC[N+]1(C)CCC(O)(c2ccc(OC)cc2)C(C(=O)c2ccc(OC)cc2)C1 (stereo unspecified) | 8.03 µM | 43.1 µM | 46.2 µM | 9.76 µM | 41.5 µM | 5.61 µM | 33.6 µM | 45.9 µM | 42.4 µM | 31.8 µM | 33.8 µM |  |  |  |  | 
Nc1ccn(C2OC(COC(=O)C34CC5CC(CC(C5)C3)C4)C(O)C2O)c(=O)n1 (stereo unspecified) | > 100 µM | > 100 µM | > 100 µM |  | > 100 µM |  | > 100 µM | > 100 µM | > 100 µM | > 100 µM | > 100 µM | > 100 µM |  |  |  | 
O=C(Nc1cccc(O)c1)C(=O)C(C(=O)c1ccc(Cl)c(Cl)c1)C1OC(=O)c2ccccc21 (stereo unspecified) |  | 39.5 µM | 37.3 µM | 24.6 µM | > 100 µM | 26.6 µM | 27.1 µM | 33.3 µM | 27.1 µM |  |  |  |  |  |  | 
CCc1cccc(CC)c1NC(=O)C1=C(C)NC(C)=C(C(=O)Nc2c(CC)cccc2CC)C1c1ccc([N+](=O)[O-])cc1 | > 100 µM |  | > 100 µM | 33.1 µM |  |  | > 100 µM | 52.4 µM | 69.2 µM |  |  |  |  |  |  | 
Cc1c(C(=O)/C=C/c2ccc(N(C)C)cc2)c(=O)n(-c2ccccc2)n1C |  | > 100 µM | > 100 µM | > 100 µM | > 100 µM |  | > 100 µM | > 100 µM | > 100 µM |  |  |  |  |  |  | 

SMILES | TGI (DLD-1 colon) | TGI (DMS 273 small cell lung) | TGI (KM20L2 colon) | TGI (LXFL 529 NSCLC) | TGI (SNB-78 CNS) | TGI (SR leukemia) | TGI (UO-31 renal) | TGI (DMS 114 small cell lung) | TGI (M19-MEL melanoma) | TGI (PC-3 prostate) | TGI (T-47D breast) | TGI (MDA-MB-231 breast) | GI50 (KM20L2 colon) | GI50 (LXFL 529 NSCLC) | GI50 (M19-MEL melanoma) | GI50 (UO-31 renal)
FC(F)(F)C1(Br)C(c2ccccc2)=C1c1ccccc1 | 43 µM | 36.3 µM | 36.3 µM | 28.1 µM | 96.6 µM | 78.5 µM | 33.9 µM | 31.4 µM | 30 µM |  |  |  |  |  |  | 
CC1=NN(C(=O)c2ccc([N+](=O)[O-])cc2)C(=O)C1N=Nc1ccccc1C(=O)O (stereo unspecified) | > 100 µM | > 100 µM |  | > 100 µM | > 100 µM |  | > 100 µM | > 100 µM | > 100 µM |  |  |  |  |  |  | 
Cc1cc(N(CCC#N)S(C)(=O)=O)ccc1C=Nc1ccc(C(=O)NN2C(=O)/C(=C/c3ccc(N(CCC#N)CCC#N)cc3C)N=C2c2cc([N+](=O)[O-])ccc2Cl)cc1 | > 100 µM | > 100 µM | > 100 µM | > 100 µM | > 100 µM |  | > 100 µM | > 100 µM | > 100 µM |  |  |  |  |  |  | 
CN1C(=O)C(=O)c2cc3c(c4c2c1cc1ccccc14)OCO3 | > 100 µM | > 100 µM | > 100 µM | > 100 µM | > 100 µM | 54.8 µM | > 100 µM | > 100 µM | > 100 µM |  |  |  |  |  |  | 
COC1=CC(=O)C2C(C1=O)C(c1ccccc1)[C@H]2C (stereo partly specified) | > 10 µM | > 100 µM |  | > 100 µM | > 10 µM | > 100 µM | > 100 µM |  |  |  |  |  |  |  |  | 
COC(C(=O)NCCCCNC(=O)C(OC)c1ccccc1)c1ccccc1 (stereo unspecified) | > 100 µM | > 100 µM | > 100 µM | > 100 µM | > 100 µM | > 100 µM | > 100 µM | > 100 µM | > 100 µM |  |  |  |  |  |  | 
CC/C(CC(=O)CCC(=O)Nc1ccccc1[N+](=O)[O-])=N/NC(=O)C[n+]1ccccc1 |  | > 100 µM | > 100 µM | > 100 µM | > 100 µM | > 100 µM | > 100 µM |  | > 100 µM |  |  |  |  |  |  | 
C=C[C@@]1(O)CCCC2=C(C(=O)OCC)CC[C@]21C | > 100 µM | > 100 µM |  | > 100 µM |  | > 100 µM | > 100 µM | > 100 µM | > 100 µM |  |  |  |  |  |  | 
COc1cc(CNC2c3cc4c(cc3C(c3cc(OC)c(OC)c(OC)c3)[C@H]3C(=O)OCC23)OCO4)cc(OC)c1OC (stereo partly specified) | > 100 µM |  | 0.359 µM | > 100 µM |  | > 100 µM | > 100 µM | 0.444 µM | > 100 µM |  |  |  |  |  |  | 
CC(=O)[CH-]C(=O)c1ccccc1.CC(=O)[CH-]C(=O)c1ccccc1.CCOCC[O-].CCOCC[O-].[Ti+4] |  |  | > 100 µM | 29.1 µM |  |  | 49.5 µM |  | 43.4 µM |  |  |  | 19.6 µM | 12.2 µM | 18.9 µM | 17.6 µM
O=C1C(Cl)C(c2ccccc2O)N1n1cnc2ccccc2c1=O (stereo unspecified) | > 100 µM | > 100 µM | > 100 µM | > 100 µM | > 100 µM | > 100 µM | > 100 µM | 81.4 µM | > 100 µM |  |  |  |  |  |  | 
CCc1cc(CCC(=O)Nc2c(C)cccc2C)[nH]n1 | > 100 µM | > 100 µM | > 100 µM | > 100 µM | > 100 µM | > 100 µM | > 100 µM |  | > 100 µM |  |  |  |  |  |  | 
N#C/C(=C1\SC(N=Nc2ccccc2)C(=O)N1c1ccccc1)c1nc2ccccc2[nH]1 (stereo unspecified) | > 100 µM | > 100 µM | > 100 µM | > 100 µM | > 100 µM |  | > 100 µM | > 100 µM | > 100 µM |  |  |  |  |  |  | 
CN(C)c1nc(=Nc2cccc(Cl)c2)ss1 | 24.8 µM | 29.9 µM | 35.5 µM | 21.7 µM | 34 µM | 34 µM | 69.8 µM | 25.8 µM | 32.6 µM |  |  |  |  |  |  | 
CCOC(=O)C(C)(C)Oc1ccc(/C=C/C(=O)c2ccc(Cl)cc2)cc1 | 27.9 µM | 34.6 µM | 33.7 µM | 29.2 µM |  | > 100 µM | > 100 µM | 36.8 µM | 38.2 µM |  |  |  |  |  |  | 
CN(C)C=C1C(Cl)=C(C=O)CC(C=O)=C1Cl | 20.9 µM | 29 µM | 41 µM | 4.45 µM |  |  | 35.1 µM | 26.1 µM | 29.1 µM |  |  |  |  |  |  | 
Cc1cc(Cl)ccc1NC(=O)C(=O)C(C(=O)c1ccc2ccccc2c1)C1OC(=O)c2ccccc21 (stereo unspecified) | 30.4 µM | 37.1 µM | 61.7 µM | 19 µM | 49.9 µM |  | 31.5 µM | 23.7 µM | 29.7 µM |  |  |  |  |  |  | 
